According to US12661409B2, “Target validation and profiling of the RNA targets of small molecules” (priority 2018, dated 2026):

Tests used:
DNA = assay: Microscale thermophoresis (MST) affinity for DNA; type: binding
pri-miR-96 [1] = assay: Microscale thermophoresis (MST) affinity for pri-miR-96; type: binding
mature miR-96 [2] = assay: RT-qPCR of mature miR-96 levels; type: cell-based; conditions: MDA-MB-231 TNBC cells; 2 complexed with Fe2+ (1 equivalent)
pri-miR-96 [3] = assay: RT-qPCR of pri-miR-96 levels; type: cell-based
mature miR-96 [4] = conditions: triple negative breast cancer (TNBC) cells; cited from earlier work
FOXO1 protein = conditions: TNBC cells; cited from earlier work
MDA-MB-231 cells = conditions: TNBC cells; cited from earlier work

Row | Molecule | Kd (DNA) [nM] | Kd (pri-miR-96 [1]) [nM] | Effect on mature miR-96 levels (mature miR-96 [2]) | Effect on pri-miR-96 levels (pri-miR-96 [3]; MDA-MB-231 TNBC cells, 2 complexed with Fe2+ (1 equivalent)) | Competition of the pri-miR-96 cleavage caused by 2 (pri-miR-96 [3]; increasing concentrations of 1 (5 to 500 nM), constant 2 (500 nM), MDA-MB-231 cells) | Effect on production of mature miR-96 (earlier study) (mature miR-96 [4]) | Effect on FOXO1 (earlier study) (FOXO1 protein) | Effect on apoptosis (earlier study) (MDA-MB-231 cells)
1 | Cc1c(N)nc([C@H](CC(N)=O)NC[C@H](N)C(N)=O)nc1C(=O)N[C@H](C(=O)N[C@H](C)[C@@H](O)[C@H](C)C(=O)N[C@H](C(=O)NCCc1nc(-c2nc(C(=O)NCCCNCCCCN)cs2)cs1)[C@@H](C)O)[C@@H](O[C@@H]1O[C@@H](CO)[C@@H](O)[C@H](O)[C@@H]1O[C@@H]1O[C@H](CO)[C@@H](O)[C@H](OC(N)=O)[C@@H]1O)c1cnc[nH]1 [bleomycin A5] | ~1000 |  |  |  |  |  |  | 
2 | Targaprimir-96 [Compound 1] |  | 39 ± 18 | reduced | increased | effectively competed off | inhibited the production of mature miR-96 | de-repressed | triggered apoptosis
